Assay results: US20040127403A1, “Methods for treating and preventing Gram-positive bacteremias” (priority 2002, published 2004)

Test system: E. faecium A6345 Line-R
Assay: MIC, NCCLS broth microdilution
Assay type: cell-based
Experimental: The efficacy of ramoplanin was tested against recently isolated VRE that are resistant to linezolid and quinupristin/dalfopristin. The culture media containing ramoplanin was supplemented with 0.02% bovine serum albumin (BSA) to prevent ramoplanin binding to the plastic. MIC values were determined in both cation-adjusted Mueller-Hinton broth (CAMHB) and trypticase soy broth (TSB) by the National Committee for Clinical Laboratory Standards (NCCLS) broth microdilution method. Macromolecular biosynthesis experiments were done by following the incorporation of carbon-14-labeled N-acetylglucosamine, acetic acid, amino acids, uridine, and thymidine into peptidoglycan, fatty acid, protein, RNA and DNA, respectively.

[1] = E. faecium A6345 Line-R. as printed, second row of Table 3
[2] = E. faecium A6345 Line-R., first row of Table 3

SMILES	reference MIC for strains used for killing curve [1] [µg/mL]	reference MIC for strains used for killing curve [2] [µg/mL]
CO[C@H]1/C=C/O[C@@]2(C)Oc3c(C)c(O)c4c(O)c(c(/C=N/N5CCN(C)CC5)c(O)c4c3C2=O)NC(=O)/C(C)=C\C=C\[C@H](C)[C@H](O)[C@@H](C)[C@@H](O)[C@@H](C)[C@H](OC(C)=O)[C@@H]1C [Rifampin]	0.03	16
O=C(N[C@H](CO)[C@H](O)c1ccc([N+](=O)[O-])cc1)C(Cl)Cl [Chloramphenicol]	16	16
